Consider 3 molecules from article PMC9784924, “Antiviral Activity and Crystal Structures of HIV-1 gp120 Antagonists” (International Journal of Molecular Sciences, 2022).

Like-named read-outs stand apart in the source and are kept apart here.

The target in the assay is T1, HIV-1 reverse transcriptase (RT) (HIV-1 M:B_HXB2R, UniProt P04585).
T1 construct: gene gag-pol; enzyme of the Colorimetric Reverse Transcriptase Assay kit (Roche); cut from the Gag-Pol polyprotein; with p51 RT
Type of assay: biochemical. The note with it: n = 2. The source says: Colorimetric Reverse Transcriptase Assay (Roche) on HIV-1 reverse transcriptase (RT)

For `CC1(C)CC(NC(=O)C(=O)Nc2ccc(Cl)cc2)CC(C)(C)N1` [NBD-556, reference compound], the IC50 (control) is over 300 µM.

With `NC[C@H](NC(=O)c1ccc(-c2ccc(C(F)(F)F)cn2)[nH]1)c1ncc(CO)s1` [NBD-14204], the half-inhibitory concentration (IC50) turned out to be 8.3 ± 1.2 µM.

As for `NC[C@H](NC(=O)c1ccc(-c2cc(F)c(Cl)c(F)c2)[nH]1)c1nc(CO)c(CO)s1` [NBD-14208], the IC50 turned out to be 5 ± 0.5 µM.

By IC50 is commonly meant the concentration needed to halve the response being measured.
